Assay results taken from patent publication US12435083B2, “Cyclopropyl-(hetero)aryl-substituted ethylsulphonyl-pyridine derivatives” (BOEHRINGER INGELHEIM VETMEDICA GMBH, priority 2021, dated 2025).
Read-outs that look alike come from different tables or passages of the source.

What was measured:
[1] = test system: adult Ctenocephalides felis fleas; experiment: Ingestion activity (flea membrane feeding, blood feeding) against adult Ctenocephalides felis; conditions: Ctenocephalides felis; bovine blood, 24h post treatment; read-out: EC80 (% motility reduction, adult C. felis, ingestion via membrane feeding)
Excerpt: Example 6: Screening Method to Test Ingestion Activity of Compounds of Formula (I) Against Adult Ctenocephalides felis
(§1) The four structurally closest prior art compounds (A), (B), (C) and (D) specifically excluded from the scope of formula (I) were characterized vis-a-vis selected compounds of formula (I) with regard to their potency in in vitro screening assays against fleas (Ctenocehalides felis) and ticks (Rhipicephalus sanguineus).
It is important to note that compounds that show better activity versus ticks are more desirable in the animal health field, as ticks are more difficult to control than fleas. Noteworthy, in particular with regard to fleas the illustrated comparative data are based on a flea membrane feeding (ingestion, blood feeding) assay. Data from this assay are more relevant for compounds intended to be delivered systemically to an animal via oral or injectable routes. Membrane feeding assays differ to primary screening laboratory contact assays in that the latter only measure the effect of the direct contact of selected compounds on the parasite, such as the flea or the tick. The information derived from laboratory contact assays is strictly limited to the ability of the compound to be absorbed through the parasite surface and to reach its molecular target, and no information can be gleaned from these contact assays as to whether the compound would also be active when presented orally to the ectoparasite itself in a blood meal, such as with the membrane feeding assay, and certainly not when administered orally to an animal host (e.g. “in vivo”) with subsequent exposure to the ectoparasite.
(§2) However, as explained above, spectrum of action against this range of species (i.e. fleas and ticks) is a desirable property of ectoparasiticides for veterinary use. In the following table 1 comparative experimental data of the in vitro assays are shown regarding flea membrane feeding (ingestion, blood feeding) activity against Ctenocephalides felis and contact activity against Rhipicephalus sanguineus.

[2] = test system: adult Ctenocephalides felis fleas; experiment: Contact activity against adult Ctenocephalides felis (treated surface, motility by machine vision, 24 h); conditions: treated surface, 24h, read-out: EC80 (% motility reduction, adult C. felis, contact)
Excerpt: Example 7: Screening Method to Test Contact Activity of Compounds of Formula (I) Against Adult Ctenocephalides felis

[3] = test system: Spodoptera litura 2nd-instar larvae; experiment: Insecticidal test on Spodoptera litura (cabbage leaf dip); conditions: foliar, 192 h, 8 days after inoculation, read-out: activity level (corrected mortality rate), Spodoptera litura
Protocol: Example 11: Insecticidal Test on Spodoptera litura
The compounds of formula (I) of the present invention or salts thereof were separately dispersed in water and diluted to 500 ppm. Cabbage leaves were dipped in the dispersion for about 30 seconds. After air dried, the leaves were placed in a plastic Petri dish with a diameter of 9 cm and inoculated with ten 2nd-instar larvae of Spodoptera litura, after which the dish was closed and then allowed to stand in a room at 25° C. 8 days after the inoculation, the numbers of the dead and alive insects were counted. The corrected mortality rate was calculated according to the following formula and the insecticidal activity was evaluated according to the following criteria. Corrected mortality rate (%)=100×(Survival rate in an untreated plot−Survival rate in a treated plot)/Survival rate in an untreated plot • A: the corrected mortality rate is 100% • B: the corrected mortality rate is 90 to 99% • C: the corrected mortality rate is 80 to 89% • D: the corrected mortality rate is 50 to 79%

Plutella xylostella = experiment: Insecticidal test on Plutella xylostella (Chinese cabbage seedling dip); conditions: 144 h, 500 ppm, seedling dip, 6 days after dip treatment, read-out: activity level (corrected mortality rate), Plutella xylostella
Protocol: Example 12: Insecticidal Test on Plutella xylostella
The compounds of formula (I) of the present invention or salts thereof were separately dispersed in water and diluted to 500 ppm. Ten adults of Plutella xylostella were released onto Chinese cabbage seedlings and allowed to lay eggs thereon. 2 days after the release of the adults, the seedling was dipped in the dispersion for about 30 seconds. After air dried, the seedling was kept in a room at 25° C. 6 days after the dip treatment, the numbers of the dead and alive insects were counted. The corrected mortality rate was calculated according to the following formula and the insecticidal activity was evaluated according to the following criteria. Corrected mortality rate (%)=100×(Survival rate in an untreated plot−Survival rate in a treated plot)/Survival rate in an untreated plot • A: the corrected mortality rate is 100% • B: the corrected mortality rate is 90 to 99% • C: the corrected mortality rate is 80 to 89% • D: the corrected mortality rate is 50 to 79%

[4] = test system: Laodelphax striatellus 3rd-instar nymphs; experiment: Insecticidal test on Laodelphax striatellus (rice seedling dip); conditions: 192 h, 500 ppm, seedling dip, 8 days after inoculation, read-out: activity level (corrected mortality rate), Laodelphax striatellus
Protocol: Example 13: Insecticidal Test on Laodelphax striatellus
The compounds of formula (I) of the present invention or salts thereof were separately dispersed in water and diluted to 500 ppm. Rice plant seedlings were dipped in the dispersion for about 30 seconds. After air dried, the seedlings were put into a separate glass test tube and inoculated with ten 3rd-instar nymphs of Laodelphax striatellus and then the glass test tube was kept in a room at 25° C. 8 days after the inoculation, the numbers of the dead and alive insects were counted. The corrected mortality rate was calculated according to the following formula and the insecticidal activity was evaluated according to the following criteria. Corrected mortality rate (%)=100×(Survival rate in an untreated plot−Survival rate in a treated plot)/Survival rate in an untreated plot • A: the corrected mortality rate is 100% • B: the corrected mortality rate is 90 to 99% • C: the corrected mortality rate is 80 to 89% • D: the corrected mortality rate is 50 to 79%

Myzus persicae = experiment: Insecticidal test on Myzus persicae (foliar application on potted Chinese cabbage); conditions: 144 h, read-out: control efficacy level (control rate), Myzus persicae
Excerpt: Example 14: Insecticidal Test on Myzus persicae
The compounds of formula (I) of the present invention or salts thereof were separately dispersed in water and diluted to 500 ppm. Chinese cabbage plants were planted in plastic pots (diameter: 8 cm, height: 8 cm). Aphids (Myzus persicae) were propagated on the plants and then the number of surviving aphids was counted. The dispersion was applied to the foliage of the potted plants. After the plants were air dried, these were kept in a greenhouse. 6 days after the application, the number of the alive insects was counted on the plants. The control rate was calculated according to the following formula and the control efficacy was evaluated according to the following criteria. Control rate (%)=100−{(T×Ca)/(Ta×C)}×100 • Ta: the number of alive insects before the foliar application in a treated plot • T: the number of alive insects after the foliar application in a treated plot • Ca: the number of alive insects before the foliar application in an untreated plot • C: the number of alive insects after the foliar application in an untreated plot • A: the control rate is 100% • B: the control rate is 90 to 99% • C: the control rate is 80 to 89% • D: the control rate is 50 to 79%

Aedes aegypti L1 larvae = experiment: Activity against larvae of Aedes aegypti (L1 larvae, 384-well, image-based mortality); conditions: 48 h at 27° C., 384-well, read-out: EC50 (percentage of mortality, A. aegypti L1 larvae)
Protocol: Example 3: Screening Method to Test Activity of Compounds of Formula (I) Against Larvae of Aedes aegypti
Eight A. aegypti L1 larvae in a total volume of 64 μL water were added to 384-well microplates containing compounds formulated in 100% DMSO. The plates were incubated for 48 h at 27° C. Individual well images were acquired and analyzed using a pipeline to quantitatively assess the amount of larvae biomass accumulating at the bottom of the well. The efficacy of a compound at a given dose is expressed as “percentage of mortality” and determined by comparison to average biomass descriptors of positive and negative control wells containing 1.0 μM Fipronil or DMSO only, respectively. Dose response assay were conducted to determine an EC50 value.

[5] = test system: adult Rhipicephalus sanguineus ticks; experiment: Contact activity against adult Rhipicephalus sanguineus (coated vial, mortality at 48 h); conditions: Rhipicephalus sanguineus; 48 hours post-treatment, coated vial; read-out: EC50 (percentage mortality, adult R. sanguineus, contact)
Protocol: Example 5: Screening Method to Test Contact Activity of Compounds of Formula (I) Against Adult Rhipicephalus sanguineus
Compounds of formula (I) formulated in 100% DMSO were diluted in a solution containing acetone and Triton X-100 (0.02%). The resulting formulation was used to coat the inner walls of glass scintillation vials and the filter paper covering the cap of the vial. Once dried, ten adult R. sanguineus ticks were added to the vials. The vials were incubated at 24° C., 95% relative humidity, and 12 hours of light/12 hours of dark until evaluation. Ticks were visually evaluated for mortality at 48 hours post-treatment. Compound efficacy at a given dose is expressed as percentage mortality. A dose response series was implemented to determine EC50 values.
as §1, §2

[6] = 500 ppm, foliar application, 6 days after application

Row | SMILES | EC80 [1] [µM] | EC80 [2] [µM] | mortality at 500 ppm [3] [%] | mortality at 500 ppm (Plutella xylostella) [%] | mortality at 500 ppm [4] [%] | pest or weed control at 500 ppm (Myzus persicae; foliar) [%] | EC50 (Aedes aegypti L1 larvae) [µM] | EC50 [5] [µM] | pest or weed control at 500 ppm (Myzus persicae; [6]) [%]
1 | CCS(=O)(=O)c1cc(-c2ccc(C3CC3)cc2)cnc1-c1cc2n(CC(F)(F)F)cc(C(F)(F)F)cc-2n1 [Compound 107, 5-(4-cyclopropylphenyl)-3-(ethanesulfonyl)-2-[4-(2,2,2-trifluoroethyl)-6-(trifluoromethyl)pyrrolo[3,2-b]pyridin-2-yl]pyridine] | 1 to 10 | 1 to 10 | 100 | – | – | – | – | – | –
2 | CCS(=O)(=O)c1cc(-c2ccc(C3CC3)nc2)cnc1-c1ccc(OCC(F)(F)C(F)(F)F)cn1 [Compound 123, 6′-cyclopropyl-5-(ethanesulfonyl)-6-[5-(2,2,3,3,3-pentafluoropropoxy)pyridin-2-yl]-3,3′-bipyridine] | – | – | 100 | 100 | 100 | 100 | – | – | –
3 | CCS(=O)(=O)c1cc(-c2ccc(C3(C(F)(F)F)CC3)cc2)cnc1-c1nc2cc3c(cc2n1C)OC(F)(F)O3 [compound 129] | 1 to 10 | 1 to 10 | 100 | 100 | 100 | – | – | – | –
4 | CCS(=O)(=O)c1cc(-c2ccc(C3CC3)cc2)cnc1-n1nc2cc(SC(F)(F)F)ncc2c1Cl [Compound 27, 2-[3-chloro-6-[(trifluoromethyl)sulfanyl]pyrazolo[4,3-c]pyridin-2-yl]-5-(4-cyclopropylphenyl)-3-(ethanesulfonyl)pyridine] | – | 1 to 10 | – | – | – | – | < 0.04 | < 10 | –
5 | CCS(=O)(=O)c1cc(-c2nccc(C3CC3)n2)cnc1-c1nc2cc(C(F)(F)C(F)(F)F)nnc2n1C [compound 143] | < 1 | < 1 | 100 | 100 | 100 | – | – | – | –
6 | CCS(=O)(=O)c1cc(-c2ccc(C3CC3)cc2)cnc1-c1nc2cc(S(=O)(=O)C(F)(F)F)cnc2n1C [Compound 82, 5-(4-cyclopropylphenyl)-3-(ethanesulfonyl)-2-[3-methyl-6-trifluoromethanesulfonylimidazo[4,5-b]pyridin-2-yl]pyridine] | – | 1 to 10 | – | 100 | 100 | – | < 0.04 | – | –
7 | CCS(=O)(=O)c1cc(-c2cccc(C3(C(F)(F)F)CC3)n2)cnc1-c1cc2n(CC(F)F)cc(C(F)(F)F)cc-2n1 [Compound 171, 6′-[4-(2,2-difluoroethyl)-6-(trifluoromethyl)pyrrolo[3,2-b]pyridin-2-yl]-5′-(ethanesulfonyl)-6-[I-(trifluoromethyl)cyclopropyl]-2,3′-bipyridine] | 1 to 10 | 1 to 10 | 100 | 100 | – | – | – | – | –
8 | CCS(=O)(=O)c1cc(-c2ccnc(C3CC3)c2)cnc1-c1nc2cc(C(F)(F)C(F)(F)F)nnc2n1C [Compound 60, 2′-cyclopropyl-5-(ethanesulfonyl)-6-[7-methyl-3-(1,1,2,2,2-pentafluoroethyl)imidazo[4,5-c]pyridazin-6-yl]-3,4′-bipyridine] | – | 1 to 10 | – | 100 | 100 | – | < 0.04 | 10 to 100 | –
9 | CCS(=O)(=O)c1cc(-c2ccc(C3CC3)cc2)cnc1-c1ccc(OCC(F)(F)C(F)(F)F)cn1 [Compound 52, 5-(4-cyclopropylphenyl)-3-(ethanesulfonyl)-5′-(2,2,3,3,3-pentafluoropropoxy)-2,2′-bipyridine] | – | – | – | 100 | 100 | – | < 0.04 | < 10 | 100
10 | CCS(=O)(=O)c1cc(-c2ccc(C3CC3)cc2)cnc1-c1nc2cc(SC(F)(F)F)cnc2n1C [Compound 83, 5-(4-cyclopropylphenyl)-3-(ethanesulfonyl)-2-[3-methyl-6-[(trifluoromethyl)sulfanyl]imidazo[4,5-b]pyridin-2-yl]pyridine] | – | 1 to 10 | – | 100 | 100 | – | < 0.04 | – | 100
11 | CCS(=O)(=O)c1cc(-c2ccc(C3CC3)cc2)cnc1-n1cc2cnc([S+]([O-])C(F)(F)F)cc2n1 (stereo not drawn) [Compound 29, 5-(4-cyclopropylphenyl)-3-(ethanesulfonyl)-2-[6-trifluoromethanesulfinylpyrazolo[4,3-c]pyridin-2-yl]pyridine] | – | 1 to 10 | – | – | – | – | < 0.04 | – | –
